Measurements taken from the Kinase Knowledgebase extract (Sharma et al. 2016).
Several values for one entry are separate records, joined by “and”; a condition that tells them apart may be missing. Identical values can stand only once. Values belong to the compound of their own block, whether it stands above or below them.

What was measured:
EGFR (Hamster) = EGFR (Hamster) (UniProt P00533); settings: er22
[1] = molecular target: EGFR (Human), P00533 [T790M/L858R]; settings: h1975
EGFR [2] = molecular target: EGFR (UniProt P00533)
[3] = molecular target: EGFR (human), P00533 [WT]
[4] = tested on: MAPK14, Q16539 [p38 (T106M) Inhibition]; experiment: p38 (T106M) Inhibition
MAPK14 (OF1 mice) = experiment: P38-mediated TNF-alpha Inhibition (OF1 Mice)
EGFR (human) [5] = molecular target: EGFR (human) (UniProt P00533); settings: A431
EGFR [6] = molecular target: EGFR (UniProt P00533); remark: listed apart in the source
PIK3CA = PIK3CA (UniProt P42336)
MAPK14 (human) [7] = molecular target: MAPK14 (human) (UniProt Q16539); experiment: TNF-alpha Inhibition (PBMC)
MAPK14 (human) [8] = molecular target: MAPK14 (human) (UniProt Q16539); experiment: TNF-alpha Inhibition (Human Whole Blood); settings: blood cells
CDK2 (human) [9] = molecular target: CDK2 (human) (UniProt P24941); experiment: Enzyme Assay
PIK3CA (human) [10] = molecular target: PIK3CA (human) (UniProt P42336); experiment: Enzyme Assay
PIK3CB (Human) = PIK3CB (Human) (UniProt P42338); experiment: Enzyme Assay
PIK3CG (human) = PIK3CG (human) (UniProt P48736); experiment: Enzyme Assay
CDK2 (human) [11] = molecular target: CDK2 (human) (UniProt P24941); experiment: Enzyme Assay; remark: listed apart in the source
CDK2 (human) [12] = molecular target: CDK2 (human) (UniProt P24941); experiment: Enzyme Assay; remark: listed apart in the source
[13] = molecular target: EGFR (human), P00533 [WT]; remark: listed apart in the source
EGFR (human) [14] = molecular target: EGFR (human) (UniProt P00533); settings: a431
MAPK14 [15] = molecular target: MAPK14 (UniProt Q16539); experiment: p38 Kinase Inhibition
MAPK14 (human) [16] = molecular target: MAPK14 (human) (UniProt Q16539); experiment: p38-mediated TNF-alpha Inhibition (THP1 Cells)
[17] = tested on: MAPK14 (sprague-dawley rat); experiment: p38-mediated TNF-alpha Inhibition (Sprauge-Dawley Rats); settings: dose or concentration not given here
EGFR (human) [18] = molecular target: EGFR (human) (UniProt P00533)
EGFR (human) [19] = molecular target: EGFR (human) (UniProt P00533); settings: A431 epidermoid carcinoma
EGFR [20] = molecular target: EGFR (UniProt P00533); remark: listed apart in the source
[21] = molecular target: EGFR (human), P00533 [WT]; remark: listed apart in the source
MAPK14 (Lewis rat) = experiment: SCW-induced Arthritis (Lewis Rat)
MAPK14 [22] = molecular target: MAPK14 (UniProt Q16539); experiment: p38-alpha2 Inhibition (E. coli); settings: concentration not given here
PIK3CA (human) [23] = molecular target: PIK3CA (human) (UniProt P42336); experiment: Cellular Inhibition of PIK3CA Kinase in MDA-MB-453 Cells
[24] = tested on: CDK2 (sprague-dawley rat); settings: dose or concentration not given here
[25] = molecular target: EGFR (Human), P00533 [T790M/L858R]
EGFR (human) [26] = molecular target: EGFR (human) (UniProt P00533); settings: a431; remark: listed apart in the source
MAPK14 [27] = molecular target: MAPK14 (UniProt Q16539); experiment: MAPK14 Binding Inhibition
[28] = molecular target: EGFR (human), P00533 [T790M]; settings: h1975
EGFR (human) [29] = molecular target: EGFR (human) (UniProt P00533); settings: A431; concentration not given here
MAPK14 [30] = molecular target: MAPK14 (UniProt Q16539)
MAPK14 [31] = molecular target: MAPK14 (UniProt Q16539); remark: listed apart in the source

Chain of EGFR (P00533 whole entry, looked up): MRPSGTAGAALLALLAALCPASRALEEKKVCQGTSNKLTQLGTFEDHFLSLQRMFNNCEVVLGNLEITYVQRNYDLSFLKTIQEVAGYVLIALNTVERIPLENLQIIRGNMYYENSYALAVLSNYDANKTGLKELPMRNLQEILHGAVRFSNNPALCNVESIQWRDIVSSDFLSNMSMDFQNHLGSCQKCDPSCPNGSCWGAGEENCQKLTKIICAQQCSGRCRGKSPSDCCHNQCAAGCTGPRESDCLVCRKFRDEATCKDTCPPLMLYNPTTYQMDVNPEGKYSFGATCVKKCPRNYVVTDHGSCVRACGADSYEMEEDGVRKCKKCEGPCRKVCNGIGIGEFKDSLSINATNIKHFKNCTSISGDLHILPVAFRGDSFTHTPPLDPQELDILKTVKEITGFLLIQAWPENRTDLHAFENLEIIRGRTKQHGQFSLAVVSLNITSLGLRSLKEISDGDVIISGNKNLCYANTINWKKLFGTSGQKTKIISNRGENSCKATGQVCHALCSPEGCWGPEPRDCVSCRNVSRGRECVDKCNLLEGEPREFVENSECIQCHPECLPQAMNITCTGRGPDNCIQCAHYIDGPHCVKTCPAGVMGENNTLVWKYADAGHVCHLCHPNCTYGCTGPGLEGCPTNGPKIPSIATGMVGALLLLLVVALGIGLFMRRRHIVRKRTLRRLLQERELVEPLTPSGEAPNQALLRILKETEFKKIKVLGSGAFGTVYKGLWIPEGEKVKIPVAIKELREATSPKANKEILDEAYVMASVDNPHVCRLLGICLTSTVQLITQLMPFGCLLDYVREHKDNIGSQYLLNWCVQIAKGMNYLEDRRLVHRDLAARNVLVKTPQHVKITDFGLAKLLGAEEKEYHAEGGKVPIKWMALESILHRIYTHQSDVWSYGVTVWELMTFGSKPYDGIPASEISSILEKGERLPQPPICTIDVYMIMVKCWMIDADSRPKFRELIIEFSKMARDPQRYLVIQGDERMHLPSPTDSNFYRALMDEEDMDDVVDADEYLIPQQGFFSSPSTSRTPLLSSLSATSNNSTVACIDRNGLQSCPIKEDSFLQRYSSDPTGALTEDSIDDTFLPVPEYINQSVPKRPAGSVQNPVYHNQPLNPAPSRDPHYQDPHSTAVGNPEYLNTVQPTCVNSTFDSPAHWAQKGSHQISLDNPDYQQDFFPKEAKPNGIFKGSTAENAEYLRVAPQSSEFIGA
Chain of EGFR (human), P00533 [WT] (P00533 whole entry, looked up): as above
Chain of EGFR (human) (P00533 whole entry, looked up): as above
Chain of MAPK14 (Q16539 whole entry, looked up): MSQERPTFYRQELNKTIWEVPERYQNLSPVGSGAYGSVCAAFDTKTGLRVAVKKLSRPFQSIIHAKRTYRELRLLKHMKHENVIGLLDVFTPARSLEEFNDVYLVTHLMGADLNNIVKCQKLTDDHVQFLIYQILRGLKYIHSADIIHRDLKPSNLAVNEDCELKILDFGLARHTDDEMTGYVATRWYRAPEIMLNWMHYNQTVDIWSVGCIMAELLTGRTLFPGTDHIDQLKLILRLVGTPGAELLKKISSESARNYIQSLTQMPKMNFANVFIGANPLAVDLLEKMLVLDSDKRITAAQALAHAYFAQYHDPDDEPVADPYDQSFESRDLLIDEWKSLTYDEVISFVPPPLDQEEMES
Chain of MAPK14 (human) (Q16539 whole entry, looked up): as above
Chain of PIK3CA (human) (P42336 whole entry, looked up): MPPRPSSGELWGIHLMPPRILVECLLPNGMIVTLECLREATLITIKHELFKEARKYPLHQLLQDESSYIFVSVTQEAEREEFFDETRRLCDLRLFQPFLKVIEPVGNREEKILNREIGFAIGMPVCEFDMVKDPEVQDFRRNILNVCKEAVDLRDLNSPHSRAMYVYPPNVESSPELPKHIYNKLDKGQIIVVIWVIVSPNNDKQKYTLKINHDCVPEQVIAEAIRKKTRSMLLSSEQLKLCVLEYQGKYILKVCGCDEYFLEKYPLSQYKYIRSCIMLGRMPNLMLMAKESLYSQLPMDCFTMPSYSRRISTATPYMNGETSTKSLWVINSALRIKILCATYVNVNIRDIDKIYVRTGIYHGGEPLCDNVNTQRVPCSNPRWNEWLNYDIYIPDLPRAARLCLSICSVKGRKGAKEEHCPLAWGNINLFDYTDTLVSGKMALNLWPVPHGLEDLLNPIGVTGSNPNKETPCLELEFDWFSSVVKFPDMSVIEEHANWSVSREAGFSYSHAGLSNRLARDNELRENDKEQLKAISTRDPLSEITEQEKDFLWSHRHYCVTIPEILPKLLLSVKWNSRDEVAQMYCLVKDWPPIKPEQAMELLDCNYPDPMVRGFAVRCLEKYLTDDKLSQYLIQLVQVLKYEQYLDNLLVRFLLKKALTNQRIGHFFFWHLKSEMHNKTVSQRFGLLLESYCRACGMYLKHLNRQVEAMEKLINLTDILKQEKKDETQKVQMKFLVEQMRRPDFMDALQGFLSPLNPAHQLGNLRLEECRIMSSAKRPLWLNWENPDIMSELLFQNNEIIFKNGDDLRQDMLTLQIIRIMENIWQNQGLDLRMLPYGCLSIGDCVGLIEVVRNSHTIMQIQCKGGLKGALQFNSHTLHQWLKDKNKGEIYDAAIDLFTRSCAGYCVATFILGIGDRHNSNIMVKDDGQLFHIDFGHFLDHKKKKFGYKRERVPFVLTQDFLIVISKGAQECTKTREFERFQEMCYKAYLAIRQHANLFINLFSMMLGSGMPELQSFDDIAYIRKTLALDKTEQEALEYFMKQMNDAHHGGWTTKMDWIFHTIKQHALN

Structure (SMILES): COC(=O)c1cc(NCc2cc(O)ccc2O)ccc1O
IC50 (EGFR (Hamster)): 9 µM

Structure (SMILES): Brc1cccc(Nc2ncnc3ccccc23)c1
IC50 (EGFR [2]): 0.126 µM
IC50 [3]: 0.027 µM

Structure (SMILES): CN1CCC(O)(c2nc(-c3ccc(F)cc3)c(-c3ccncc3)s2)CC1
inhibition (MAPK14 (OF1 mice)): 0%

Structure (SMILES): C[C@@]12CCC(=O)c3coc(c31)C(=O)c1cc3c(cc12)C(=O)C=CC3=O
IC50 (EGFR [6]): 19 µM

Structure (SMILES): O=c1c(O)c(-c2ccc(O)c(O)c2)oc2cc(O)cc(O)c12
IC50 (PIK3CA): 3.8 µM

Structure (SMILES): N#CC(C#N)=C(N)/C(C#N)=C/c1ccc2ccccc2n1
IC50 (EGFR (human) [18]): 1.7 µM

Structure (SMILES): Cn1c(SSc2c(C(=O)Nc3ccccc3)c3ccc(C(F)(F)F)cc3n2C)c(C(=O)Nc2ccccc2)c2cc(C(F)(F)F)ccc21
IC50 (EGFR (human) [19]): > 100 µM

Structure (SMILES): COc1cccc(Nc2ccnc(Nc3cccc(OC)c3)n2)c1
IC50 [21]: 7.7 µM

Structure (SMILES): CC1(C(=O)N2CCOCC2)COC(c2nc(-c3ccc(F)cc3)c(-c3ccnc(NC4CC4)n3)[nH]2)OC1 (configuration not stated)
AUC (MAPK14 (Lewis rat)): 2 and 2.1 and 3.3

Structure (SMILES): COC(=O)c1sc(C(C)(C)C)cc1NC(=O)Nc1ccc(C(N)=O)cc1
inhibition (MAPK14 [22]): 23%

Structure (SMILES): CN1CC[C@@H](c2c(O)cc(O)c3c(=O)cc(-c4ccccc4Cl)oc23)[C@@H](O)C1
response [24]: 4.2%

Now from value to compound, other results behind:

IC50 [1]: > 10 µM
Structure (SMILES): C=CC(=O)NCCN1C(=O)N(Cc2ccccc2)Cc2cnc(Nc3ccc(N4CCN(C)CC4)cc3OC)nc21

inhibition [4]: 0%
Structure (SMILES): Fc1ccc(-c2ncn(C3CCNCC3)c2-c2ccncc2)cc1

IC50 (EGFR (human) [5]): 1.25 µM
Structure (SMILES): Nc1ccc2c(NCc3ccccc3)ncnc2c1

IC50 (MAPK14 (human) [7]): 0.292 µM
IC50 (MAPK14 (human) [8]): 1.2 µM
Structure (SMILES): C[C@H](Nc1nccc(-c2cc(N3CCOCC3)nnc2-c2cccc(C(F)(F)F)c2)n1)c1ccccc1

IC50 (CDK2 (human) [9]): 0.0973 µM
IC50 (PIK3CA (human) [10]): 1.06 µM
IC50 (PIK3CB (Human)): 0.759 µM
IC50 (PIK3CG (human)): 1.12 µM
IC50 (CDK2 (human) [11]): 0.769 µM
IC50 (CDK2 (human) [12]): 1.35 µM
Structure (SMILES): CN1CCN(c2ccc(Nc3ncc4cc(C#N)c(=O)n(C5CCCC5)c4n3)cc2)CC1

IC50 [13]: 0.079 µM
Structure (SMILES): COc1cc(N2CCN(C(C)=O)CC2)ccc1Nc1ncc(Cl)c(-c2c[nH]c3ccccc23)n1

IC50 (EGFR (human) [14]): > 20 µM
Structure (SMILES): COc1ccc(/C=C/C(=O)Nc2cccc(Oc3cc(Nc4ccc(OCc5cccc(F)c5)c(Cl)c4)ncn3)c2)cc1OC

IC50 (MAPK14 [15]): 1.45 µM
IC50 (MAPK14 (human) [16]): 0.17 µM
Structure (SMILES): Nc1c(C(=O)c2cccc(NC=NO)c2)cnn1-c1ccc(F)cc1
inhibition [17]: 76%

IC50 (EGFR [20]): 8.18 µM
Structure (SMILES): CO[C@H]1[C@@H](N(C)C2C=NC=CN2)C[C@@H]2O[C@@]1(C)n1c3ccccc3c3c4c(c5c6ccccc6n2c5c31)C(=O)NC4 (some centres not stated)

IC50 (PIK3CA (human) [23]): 0.2 to 0.5 µM
Structure (SMILES): CC(C)(Cc1ccccc1C1CCN(S(C)(=O)=O)CC1)Nc1nc(N2CCOCC2)nc(-n2c(C(F)F)nc3ccccc32)n1

IC50 [25]: 0.0007 µM
Structure (SMILES): C=CC(=O)Nc1cccc(N2C(=O)N(Cc3ccccc3)Cc3cnc(Nc4ccc(N5CCN(C)CC5)cc4OC)nc32)c1

IC50 (EGFR (human) [26]): 0.68 µM
Structure (SMILES): COc1cc2cc3ncc(C#N)c(Nc4ccc(F)c(Cl)c4)c3cc2cc1OC

IC50 (MAPK14 [27]): < 50 µM
Structure (SMILES): COc1cc(-c2c(-c3ccc(F)cc3)ncn2C2CCNCC2)ccn1

IC50 [28]: > 20 µM
Structure (SMILES): O=C(CCN1CCOCC1)Nc1ccc2ncnc(Nc3cccc(Br)c3)c2c1

inhibition (EGFR (human) [29]): 4%
Structure (SMILES): Oc1cccc(-c2nc3ccc(O)cc3s2)c1

IC50 (MAPK14 [30]): < 50 µM
IC50 (MAPK14 [31]): < 50 µM
Structure (SMILES): O=C(CN1CCNCC1)Nc1cccc(Oc2nccc(-c3c(-c4ccc(F)cc4)ncn3C3CCNCC3)n2)c1
